Test results: publication PMC12858405, “Ideal efficacy photoswitching for chromocontrol of TRPC4/5 channel functions in live tissues” (Nature Chemical Biology, 2026)

Molecular target: T1, TRPC5-SYFP2 (Homo sapiens, UniProt Q9UL62)
T1 construct: expressed in transfected cells; host or cells: HEK 293 (ATCC CRL 1573), transiently transfected (jetPRIME)
T1 sequence (Q9UL62 1-973): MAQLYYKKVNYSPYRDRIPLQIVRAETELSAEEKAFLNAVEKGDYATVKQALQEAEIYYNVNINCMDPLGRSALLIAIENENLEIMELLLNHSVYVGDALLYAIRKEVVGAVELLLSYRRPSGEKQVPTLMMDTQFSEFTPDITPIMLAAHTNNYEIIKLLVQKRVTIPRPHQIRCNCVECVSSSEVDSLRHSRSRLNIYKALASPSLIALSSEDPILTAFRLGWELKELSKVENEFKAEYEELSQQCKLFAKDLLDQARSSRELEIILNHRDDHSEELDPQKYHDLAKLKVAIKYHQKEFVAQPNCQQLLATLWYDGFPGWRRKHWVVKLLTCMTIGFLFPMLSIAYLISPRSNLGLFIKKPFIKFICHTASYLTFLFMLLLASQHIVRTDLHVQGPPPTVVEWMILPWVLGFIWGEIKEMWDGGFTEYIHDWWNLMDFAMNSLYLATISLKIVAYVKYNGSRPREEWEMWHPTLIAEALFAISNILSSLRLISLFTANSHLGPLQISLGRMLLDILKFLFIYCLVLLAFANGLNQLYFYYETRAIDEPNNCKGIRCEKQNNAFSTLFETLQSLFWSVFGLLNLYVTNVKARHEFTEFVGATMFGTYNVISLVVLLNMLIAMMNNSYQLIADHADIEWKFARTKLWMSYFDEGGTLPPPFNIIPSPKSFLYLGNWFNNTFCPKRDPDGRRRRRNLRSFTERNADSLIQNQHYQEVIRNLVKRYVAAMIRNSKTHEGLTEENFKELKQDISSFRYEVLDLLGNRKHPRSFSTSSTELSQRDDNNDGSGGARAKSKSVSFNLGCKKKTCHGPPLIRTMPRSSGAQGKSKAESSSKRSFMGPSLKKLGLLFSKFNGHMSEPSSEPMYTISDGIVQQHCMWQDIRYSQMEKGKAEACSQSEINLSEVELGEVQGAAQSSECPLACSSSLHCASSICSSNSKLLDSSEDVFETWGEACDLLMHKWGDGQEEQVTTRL
Assay: Fura-2 [Ca2+]i recordings, HEK 293 transiently expressing TRPC5-SYFP2
Type: cell-based
Conditions: 10-1000 nM; compound plate illuminated at 380 nm; EA 100 nM as maximum
Excerpt: Müller, Niemeyer, et al., Schaefer & Thorn-Seshold 2025: Ideal Efficacy Photoswitching of TRPC4/5 in Tissue […]
1.4.4 Differences and selectivity between TRPC5 and TRPC4?
AM237 activates TRPC5 but inhibits EA mediated activation of TRPC4; Pico145 inhibits both TRPC4 and TRPC5. Thus, somewhat naively, it could be argued that it is the para substituent here which affects both the efficacy mode and the selectivity for TRPC4 and/or TRPC5.
Intriguingly, Z-AzPico activates TRPC4 and TRPC5 with low nanomolar potency whereas Z-AzHC only activates TRPC5 but not TRPC4. Therefore, the meta substituent is now responsible for the selectivity in this case. The cryo-EM structures of Pico145 and HC-070 in complex with TRPC5 indicated the same binding site but the southern phenyl ring bearing the OCF3/Cl group is flipped and pointing in opposite directions.
Z isomers, i.e. Z-buried vs. E-projected. Additionally, both E-AzPico and E-AzHC inhibit EA […]
It is not surprising that both ligands bind to either protein because there is a high sequence similarity among the TRPC family in the identified binding pocket for Pico145 /HC-070, and in the binding region, human TRPC4/5 differ only by a single amino acid (TRPC5: V579, TRPC4: I579). We […]
the result of differences in this residue. […]
Intracellular calcium ([Ca2+]i) was measured using the ratiometric Ca2+ dye Fura-2. […]

| SMILES | Effect on [Ca2+]i, TRPC5 |
| --- | --- |
| Cn1c(=O)n(CCCO)c(=O)c2c1nc(Oc1ccc(Cl)c(OC(F)(F)F)c1)n2Cc1ccc(Cl)cc1 [AM237, reference compound] | partial agonists |
| Cn1c(=O)n(CCCO)c(=O)c2c1nc(Oc1ccc(/N=N\c3ccccc3)c(Cl)c1)n2Cc1ccc(Cl)cc1 [Z*-AzHC] | partial agonists |
